Assay [1] concerns the target T1, Gal4-RORγ-LBD (Homo sapiens, UniProt P51449).
T1 construct: expressed in transfected cells
T1 sequence (P51449 269-508 limits assumed): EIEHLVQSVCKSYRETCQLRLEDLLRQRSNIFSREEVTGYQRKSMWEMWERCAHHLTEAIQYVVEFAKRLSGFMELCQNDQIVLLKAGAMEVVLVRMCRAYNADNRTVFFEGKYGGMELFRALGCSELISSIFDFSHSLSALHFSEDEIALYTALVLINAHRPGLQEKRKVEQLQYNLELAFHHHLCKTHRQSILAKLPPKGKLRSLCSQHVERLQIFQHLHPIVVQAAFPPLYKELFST
The experiment in a line: Gal4-RORγ Luciferase Reporter Assay in HEK-293T Cells. Type of assay: cell-based. The settings on record: HEK-293 cells, luciferase reporter, with ursolic acid. In outline: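 HEK-293 cells were co-transfected with Gal4-RORγ-LBD and a Gal4-luciferase reporter, then exposed overnight at 37 °C to compounds with […] ursolic acid present (0.2% DMSO). Luminescence was read with One-Glo after 10 min at RT, untreated signal was set as 100, and Max Response was taken as the upper plateau of a 4-parameter logistic fit.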

Assay [2] has as its target T2, RORγ-LBD (Homo sapiens, UniProt P51449).
T2 construct: made in house; host or cells: SF9 cells (baculovirus); used as diluted lysate
T2 sequence (P51449 269-508 limits assumed): T1 sequence (P51449 269-508 limits assumed)
The experiment in a line: RORγ-Ligand Binding Domain (LBD) TR-FRET Assay. The assay is classed as biochemical. The settings on record: RORγ-LBD TR-FRET. The essentials: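 This TR-FRET coactivator assay pairs baculovirus-expressed His-RORγ-LBD (~3 nM final) with biotin-SRC1 LXXLL peptide at 200 nM final in pH 7.0 Tris/KCl/EDTA/DTT/BSA buffer.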

Bounds are passed on as bounds.

As to `O=C(O)CC[C@H]1CN(S(=O)(=O)c2cc(C(F)(F)F)cnc2OCCO)c2cc(C=C3CCC(F)(F)CC3)ccc2O1` [Example 95M, (S)-3-(6-((4,4-difluorocyclohexylidene)methyl)-4-((2-(2-hydroxyethoxy)-5-(trifluoromethyl)pyridin-3-yl)sulfonyl)-3,4-dihydro-2H-benzo[b][1,4]oxazin-2-yl)propanoic acid], the EC50 in assay [1] is 500 to 5000 nM; in assay [2], < 500 nM.

Turning to `O=C(O)CC[C@H]1CN(S(=O)(=O)c2cccc(C(F)(F)F)c2)c2cc(C=C3CCOCC3)ccc2O1` [Example 95N, (S)-3-(6-((tetrahydro-4H-pyran-4-ylidene)methyl)-4-((3-(trifluoromethyl)phenyl)sulfonyl)-3,4-dihydro-2H-benzo[b][1,4]oxazin-2-yl)propanoic acid], the EC50 in assay [1] was 500 to 5000 nM; in assay [2], < 500 nM.

For the compound `O=C(O)CC[C@H]1CN(S(=O)(=O)c2cc(C(F)(F)F)cnc2OCCO)c2cc(C=C3CCOCC3)ccc2O1` [Example 95O, (S)-3-(4-((2-(2-hydroxyethoxy)-5-(trifluoromethyl)pyridin-3-yl)sulfonyl)-6-((tetrahydro-4H-pyran-4-ylidene)methyl)-3,4-dihydro-2H-benzo[b][1,4]oxazin-2-yl)propanoic acid], the EC50 in assay [1] was 500 to 5000 nM; in assay [2], < 500 nM.

For `CC1CCC(=Cc2ccc3c(c2)N(S(=O)(=O)c2cc(C(F)(F)F)cnc2OCCO)C[C@H](CCC(=O)O)O3)CC1` (stereo partly drawn) [Example 95P, 3-((2S)-4-((2-(2-hydroxyethoxy)-5-(trifluoromethyl)pyridin-3-yl)sulfonyl)-6-((4-methylcyclohexylidene)methyl)-3,4-dihydro-2H-benzo[b][1,4]oxazin-2-yl)propanoic acid], the EC50 was 500 to 5000 nM in assay [1] and < 500 nM in assay [2].

For the compound `CC1CCCC/C1=C\c1ccc2c(c1)N(S(=O)(=O)c1cccc(C(F)(F)F)c1)C[C@H](CCC(=O)O)O2` (stereo partly drawn) [Example 95Q, 3-((2S)-6-((E)-(2-methylcyclohexylidene)methyl)-4-((3-(trifluoromethyl)phenyl)-sulfonyl)-3,4-dihydro-2H-benzo[b][1,4]oxazin-2-yl)propanoic acid], the concentration giving a half-maximal response (EC50) in assay [1] and in assay [2] was < 500 nM throughout.

As for `CC1CCCC/C1=C\c1ccc2c(c1)N(S(=O)(=O)c1cc(C(F)(F)F)cnc1OCCO)C[C@H](CCC(=O)O)O2` (some centres unmarked) [Example 95R], the EC50 in assay [1] and in assay [2] was < 500 nM in each case.

For the compound `O=C(O)CC[C@H]1CN(S(=O)(=O)c2cccc(C(F)(F)F)c2)c2cc(/C=C3\CC4CCC3C4)ccc2O1` (stereo partly drawn) [Example 95S, 3-((2S)-6-((E)-bicyclo[2.2.1]heptan-2-ylidenemethyl)-4-((3-(trifluoromethyl)phenyl)sulfonyl)-3,4-dihydro-2H-benzo[b][1,4]oxazin-2-yl)propanoic acid], the half-maximal effective concentration (EC50) in assay [1] and in assay [2] was < 500 nM in each case.

On to `O=C(O)CC[C@H]1CN(S(=O)(=O)c2cc(C(F)(F)F)cnc2OCCO)c2cc(/C=C3\CC4CCC3C4)ccc2O1` (stereo partly drawn) [Example 95T, 3-((2S)-6-((E)-bicyclo[2.2.1]heptan-2-ylidenemethyl)-4-((2-(2-hydroxyethoxy)-5-(trifluoromethyl)pyridin-3-yl)sulfonyl)-3,4-dihydro-2H-benzo[b][1,4]oxazin-2-yl)propanoic acid], for which the EC50 is 500 to 5000 nM in assay [1] and < 500 nM in assay [2].

As for `CC1CCCC(=Cc2ccc3c(c2)N(S(=O)(=O)c2cc(C(F)(F)F)cnc2OCCO)C[C@H](CCC(=O)O)O3)C1` (stereo partly drawn) [Example 95U, 3-((2S)-4-((2-(2-hydroxyethoxy)-5-(trifluoromethyl)pyridin-3-yl)sulfonyl)-6-((3-methylcyclohexylidene)methyl)-3,4-dihydro-2H-benzo[b][1,4]oxazin-2-yl)propanoic acid], the EC50 is 500 to 5000 nM in assay [1] and < 500 nM in assay [2].

`CC1(C)CCC(=Cc2ccc3c(c2)N(S(=O)(=O)c2cc(C(F)(F)F)cnc2OCCO)C[C@H](CCC(=O)O)O3)CC1` [Example 95W, (S)-3-(6-((4,4-dimethyl-cyclohexylidene)methyl)-4-((2-(2-hydroxyethoxy)-5-(trifluoromethyl)pyridin-3-yl)sulfonyl)-3,4-dihydro-2H-benzo[b][1,4]oxazin-2-yl)propanoic acid]: the figures for the 50% effective concentration (EC50) in assay [1] and in assay [2] were 500 to 5000 nM and < 500 nM, respectively.

Regarding `O=C(O)CC[C@H]1CN(S(=O)(=O)c2cc(C(F)(F)F)cnc2OCCO)c2cc(/C=C3/CCCOC3)ccc2O1` [Example 95Y, (S,Z)-3-(6-((dihydro-2H-pyran-3(4H)-ylidene)methyl)-4-((2-(2-hydroxyethoxy)-5-(trifluoromethyl)pyridin-3-yl)sulfonyl)-3,4-dihydro-2H-benzo[b][1,4]oxazin-2-yl)propanoic acid], the half-maximal effective concentration (EC50) in assay [1] is 500 to 5000 nM; in assay [2], < 500 nM.

In the case of `C[C@@H]1C/C(=C\c2ccc3c(c2)N(S(=O)(=O)c2cccc(C(F)(F)F)c2)C[C@H](CCC(=O)O)O3)C[C@H](C)C1` [Example 95Z, 3-((S)-6-((E)-((3R,5S)-3,5-dimethylcyclohexylidene)-methyl)-4-((3-(trifluoromethyl)-phenyl)sulfonyl)-3,4-dihydro-2H-benzo[b][1,4]oxazin-2-yl)propanoic acid], the concentration for a half-maximal effect (EC50) in assay [1] was 500 to 5000 nM; in assay [2], < 500 nM.

With `C/C(=C\c1ccc2c(c1)N(S(=O)(=O)c1cccc(C(F)(F)F)c1)C[C@H]([C@H](C)O)O2)c1c(F)cccc1Cl` [Example 96, (S)-1-((R)-6-((E)-2-(2-Chloro-6-fluorophenyl)prop-1-en-1-yl)-4-((3-(trifluoromethyl)phenyl)sulfonyl)-3,4-dihydro-2H-benzo[b][1,4]oxazin-2-yl)ethan-1-ol], the 50% effective concentration (EC50) in assay [1] and in assay [2] was < 500 nM each time.

As to `CCn1cc(S(=O)(=O)N2C[C@H]([C@H](C)O)Oc3ccc(/C=C(\C)c4c(F)cccc4Cl)cc32)c(Cl)n1` [Example 97, (S)-1-((R)-4-((3-Chloro-1-ethyl-1H-pyrazol-4-yl)sulfonyl)-6-((E)-2-(2-chloro-6-fluorophenyl)prop-1-en-1-yl)-3,4-dihydro-2H-benzo[b][1,4]oxazin-2-yl)ethan-1-ol], the EC50 in assay [1] and in assay [2] was < 500 nM each time.

Take `C/C(=C\c1ccc2c(c1)N(S(=O)(=O)c1cccc(C(F)(F)F)c1)C[C@H]([C@@H](C)O)O2)c1c(F)cccc1Cl` [Example 98, (R)-1-((R)-6-((E)-2-(2-Chloro-6-fluorophenyl)prop-1-en-1-yl)-4-((3-(trifluoromethyl)phenyl)sulfonyl)-3,4-dihydro-2H-benzo[b][1,4]oxazin-2-yl)ethan-1-ol]: the EC50 in assay [1] and in assay [2] was < 500 nM throughout.

As for `CCn1cc(S(=O)(=O)N2C[C@H]([C@@H](C)O)Oc3ccc(/C=C(\C)c4c(F)cccc4Cl)cc32)c(Cl)n1` [Example 99, (R)-1-((R)-4-((3-Chloro-1-ethyl-1H-pyrazol-4-yl)sulfonyl)-6-((E)-2-(2-chloro-6-fluorophenyl)prop-1-en-1-yl)-3,4-dihydro-2H-benzo[b][1,4]oxazin-2-yl)ethan-1-ol], the half-maximal effective concentration (EC50) in assay [1] was 500 to 5000 nM; in assay [2] it was < 500 nM.

For the origin of these results see US9896441B2 (Lycera Corporation, priority 2014, dated 2018).
